Reference: patent US20220211695A1, “MORPHINE-INDUCED RESPIRATORY DEPRESSION: BEHAVIORAL, PHRENIC AND BRAINSTEM RESPIRATORY NEURONAL EVIDENCE” (GEORGIA STATE UNIVERSITY RESEARCH FOUNDATION, INC., priority 2019, published 2022)

What was measured:
[1] = system: Sprague Dawley rats; test: Plethysmography of breathing after repetitive (chronic) morphine administrations, with or without cloperastine
Source text: A major adverse effect of the chronic use of opioid drugs is respiratory depression causing a […] in the United States. Via μ-Opioid receptors (MOR), respiratory neurons in the brainstem are known to be the targets, especially those in the ventral respiratory column (VRC). However, how the VRC neurons react to chronic opioid drugs remains elusive. To understand how chronic morphine exposures affect brainstem respiratory motor output, we performed these studies in Sprague Dawley rats, using repetitive morphine administrations. […] Since the MOR is coupled to GIRK channels, we applied Cloperastine, a GIRK channel blocker and a commercial OTC drug, to the rats before or after chronic morphine.
Disclosed herein are methods for treating chronic morphine exposures and how this exposure affects brainstem respiratory motor output. Disclosed herein are studies using Sprague Dawley rats, during which repetitive morphine administrations were conducted.

[2] = system: rostral ventral respiratory group (rVRG) neurons; test: Extracellular recording of firing activity of respiratory neurons in the ventral respiratory group; type: in vivo, Sprague Dawley rats
Description: Firing activity of respiratory neurons was recorded extracellularly in the ventral respiratory group.

[3] = system: phrenic discharges; test: Phrenic discharge recording in spontaneously breathing rats after decerebration
[4] = system: phrenic discharges; conditions: rat, in vivo
[5] = 50 mg/kg morphine followed by 30 mg/kg cloperastine

SMILES | effect on breathing (minute ventilation, variation of amplitude and frequency) ([1]; 10 mg/kg morphine) | breathing depression after repetitive morphine administrations ([1]; chronic morphine, Sprague Dawley rats) | time for the breathing effects to reach a plateau level ([1]; repetitive morphine administrations) | duration of minute ventilation suppression ([1]; same dose morphine following the chronic treatments) | suppression of minute ventilation ([1]; same dose morphine following the chronic treatments, n=16 rats, plethysmography) | variations in tidal volume and breathing frequency ([1]; same dose morphine following the chronic treatments, plethysmography) | E-I phase-spanning neurons in the ventral respiratory group ([2]; chronic morphine versus saline injection) | ectopic phrenic activity during expiration ([3]; after chronic morphine exposures) | erratic breathing (FIG. 8) ([1]; 30 mg/kg cloperastine injected after 10 mg/kg morphine) | erratic breathing (FIG. 11) ([1]; 30 mg/kg cloperastine injected first, then 10 mg/kg morphine) | effect on chronic morphine-induced central hypoventilation ([1]; cloperastine applied before or after chronic morphine) | time at which a significant change in normalized minute ventilation occurs (FIG. 16) ([1]; cloperastine given at 20 minutes post morphine) | effect on morphine's effects on breathing frequency (FIG. 13) ([1]; cloperastine injection after morphine, normalized time course) | firing activity of rVRG neurons (FIG. 31) [2, 5] | Te and Ti duration (FIG. 24) [4] | Te/Ti ratio (FIG. 25) [4] | breathing frequency (FIG. 26) [4] | phrenic discharge pattern (FIG. 19) [3, 5]
CN1CC[C@]23c4c5ccc(O)c4O[C@H]2[C@@H](O)C=C[C@H]3[C@H]1C5 [morphine] | causes central hypoventilation with decreased breathing minute ventilation, increased variation of both breathing amplitude & frequency | severe breathing depression was found in these rats | 3 to 4 days | 3 to 4 h | 55.2%±4.1 | severe variations in tidal volume and breathing frequency | A large number of E-I phase-spanning neurons were observed | Ectopic phrenic activity during expiration was seen | – | – | – | – | – | – | – | – | – | –
Clc1ccc(C(OCCN2CCCCC2)c2ccccc2)cc1 (stereo not drawn) [cloperastine] | – | – | – | – | – | – | – | – | reduction in erratic breathing | reduction in erratic breathing | reverses hypoventilation mainly by suppression the irregularity of breathing amplitude and frequency | about 45 minutes | reducing the effects of morphine of breathing frequency | return to near normal firing activity | nearly the same as the control | nearly identical to control | nearly identical to control | erratic phrenic activity has nearly completely subsided
